Reference: US6900224B2, “Antimicrobial quinolones, their compositions and uses” (The Procter & Gamble Company, priority 2002, dated 2005)

Tests used:
[1] = system: Escherichia coli; test: treatment of human subject with urinary tract infection, enteric coated oral tablets; type: in vivo; conditions: two enteric coated tablets (350 mg each) orally every 8 hours for 4 days
Source text: An enteric coated antimicrobial composition for oral administration, according to this invention, is made comprising the following core tablet:
The components are admixed into a bulk mixture. Compressed tablets are formed, using tabletting methods known in the art. The tablet is then coated with a suspension of methacrylic acid/methacrylic acid ester polymer in isopropanol/acetone. A human subject, having a urinary tract infection with Escherichia coli present, is orally administered two of the tablets, every 8 hours, for 4 days.

[2] = reported side effect; cited from earlier work
[3] = system: Streptococcus pneumoniae; conditions: human, lower respiratory tract infection with Streptococcus pneumoniae; 30 mg/mL suspension, approx. 2.0 mL intramuscular twice daily for approx. 14 days; after 4 days
Method: An antimicrobial composition for parenteral administration, according to this invention, is made comprising:
The above ingredients are mixed, forming a suspension. Approximately 2.0 mL of the suspension is systemically administered, via intramuscular injection, to a human subject suffering from a lower respiratory tract infection, with Streptococcus pneumoniae present. This dosage is repeated twice daily, for approximately 14 days.

With “7-[7-amino-8R-methyl-5-azaspiro[2.5]-octanyl]-1-cyclopropyl-1,4-dihydro-6-fluoro-8-methoxy-4-oxo-3-quinolinecarboxylic acid hydrochloride [Example 5]” as the compound, how does the “symptoms of the disease / eradication of the pathogen” value [1] read?
Its value is “Symptoms of the disease then subside”.

With COc1c(N2CCNC(C)C2)c(F)cc2c(=O)c(C(=O)O)cn(C3CC3)c12 (racemic) [gatifloxacin, (±)-1-cyclopropyl-6-fluoro-1,4-dihydro-8-methoxy-7-(3-methyl-1-piperazinyl)-4-oxo-3-quinoline carboxylic acid] as the compound, how does the clastogenicity [2] read?
Its clastogenicity is “exhibit clastogenicity”.

Which “symptoms of the disease / eradication of the pathogen” value [3] does the source give for CC[C@@H]1[C@H](N)CN(c2nc3c(cc2F)c(=O)c(C(=O)O)cn3C2CC2)C[C@@H]1C.Cl [Example 12, 7-[3S-amino-4S-ethyl-5R-methyl-piperidinyl]-1-Cyclopropyl-1,4-dihydro-6-fluoro-4-oxo-1,8-naphthyridine-3-carboxylic acid hydrochloride] here?
The value was “symptoms of the disease subside”.
